Counter-ions that a name gives are not always drawn.
Legend:
[1] = test system: CU-ACC1; assay: ExcessHSA synergy score with TAK-243; higher = less synergy (negative = synergistic); conditions: combined with: TAK-243 (MLN-7243) matrix, 9-point 1:2 dilution
Description: (§1)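 Each drug was tested at 9 points with 1:2 dilution; viability was read by CellTiter-Glo as in the single-agent screen. Synergy is scored as ExcessHSA (sum of excess over highest single agent; negative = synergy) and the Beta interaction parameter (<1 synergy).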

[2] = test system: NCI-H295R; assay: as above; conditions: combined with: TAK-243 (MLN-7243) matrix, 9-point 1:2 dilution
Description: as §1

[3] = test system: CU-ACC1; assay: AC50 viability; higher = less potent; conditions: 48 h
How it was run: (§2)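 Luminescence from CellTiter-Glo, read after 48 h, measured three adrenocortical carcinoma cell lines treated in 1,536-well plates with library compounds at 11 concentrations. Values were normalised per plate to vehicle and empty-well controls. The AC50 and area under the curve come from fitted concentration-response curves in inhibitory or non-responding classes only.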

[4] = test system: CU-ACC2; assay: AC50 viability; higher = less potent; conditions: 48 h
How it was run: as §2

[5] = test system: NCI-H295R; assay: AC50 viability; higher = less potent; conditions: 48 h
How it was run: as §2

[6] = test system: CU-ACC1; assay: area under concentration-response curve (viability) (AUC (a.u.)); higher = less active; conditions: 48 h
How it was run: as §2

[7] = test system: CU-ACC2; assay: as above; conditions: 48 h
How it was run: as §2

[8] = test system: NCI-H295R; assay: as above; conditions: 48 h
How it was run: as §2

SMILES	ExcessHSA synergy score with TAK-243 [1]	ExcessHSA synergy score with TAK-243 [2]	AC50 viability [3] [µM]	AC50 viability [4] [µM]	AC50 viability [5] [µM]	area under concentration-response curve [6]	area under concentration-response curve [7]	area under concentration-response curve [8]
Cc1cc2c(C(N)=O)cccc2n1-c1nc2c(c(NCc3ccccc3)n1)COCC2 [CB-5083]	-143	71.1	–	–	–	–	–	–
C=CCNC1=C2C[C@@H](C)C[C@H](OC)[C@H](O)[C@@H](C)/C=C(\C)[C@H](OC(N)=O)[C@@H](OC)/C=C\C=C(/C)C(=O)NC(=CC1=O)C2=O [17-AAG]	421	-251	–	–	–	–	–	–
COc1c(OCCCN2CCOCC2)ccc2c3n(c(=NC(=O)c4cnc(N)nc4)nc12)CCN3 [Copanlisib]	70.4	87	–	–	–	–	–	–
O=C(C[C@@H](C(F)F)n1ccc(F)n1)N1CCC(O)(Cn2cnc3c(cnn3-c3ccc(F)cc3)c2=O)CC1 [FT671]	-97.6	431	–	–	–	–	–	–
CNC(=O)c1ccc(Nc2ncc(C(F)(F)F)c(NCc3nccnc3N(C)S(C)(=O)=O)n2)cc1 [Defactinib]	223	245	–	–	–	–	–	–
Nc1nc2[nH]cc(CCc3ccc(C(=O)N[C@@H](CCC(=O)O)C(=O)O)cc3)c2c(=O)[nH]1	147	–	–	–	–	–	–	–
Cc1[nH]c2ccc(F)cc2c1-c1nc2c3cccnc3c3ncccc3c2[nH]1 [APTO-253]	410	586	–	–	–	–	–	–
CC[C@@]1(O)C(=O)OCc2c1cc1n(c2=O)Cc2cc3c(CN(C)C)c(O)ccc3nc2-1 [Topotecan hydrochloride]	-710	-194	–	–	–	–	–	–
CCOC(=O)[C@@H](N)CCC(=O)N[C@@H](CSCc1ccccc1)C(=O)N[C@@H](C(=O)OCC)c1ccccc1 [Ezatiostat]	-271	-222	–	–	–	–	–	–
O=c1[nH]c(CSC2CCC(O)CC2)nc2cc(OCC3CC3)cc(F)c12 (stereo not given)	650	1170	–	–	–	–	–	–
O=C1CC[C@H](N2Cc3c(OCc4ccc(CN5CCOCC5)cc4)cccc3C2=O)C(=O)N1 [Iberdomide]	393	1110	–	–	–	–	–	–
Cc1nc2cccc(N)c2c(=O)n1C1CCC(=O)NC1=O (stereo not given) [Avadomide]	-213	1030	–	–	–	–	–	–
O=C(NCc1ccc(S(=O)(=O)c2cccc(C(F)(F)F)c2)cc1)c1cnc2[nH]ncc2c1 [GNE-618]	-406	-555	–	–	–	–	–	–
COc1ncnc(C2CC2)c1-c1ncc2cnn(Cc3ccc(-c4nc(C(F)(F)F)cn4C(C)C)cc3)c2n1 [KSQ-4279]	-545	-796	–	–	–	–	–	–
Cc1nc(-c2nc(-c3ccc(OC(F)(F)F)cc3)no2)nn1Cc1cccc(N2CCC(S(C)(=O)=O)CC2)c1	422	691	–	–	–	–	–	–
CC(C)Nc1cc(-c2c[nH]c(C(=O)N[C@H](CO)c3cccc(Cl)c3)c2)c(Cl)cn1 [Ulixertinib]	-564	-674	–	–	–	–	–	–
CC1=C(/C=C/C(C)=C/C=C/C(C)=C\C(=O)O)C(C)(C)CCC1 [Isotretinoin]	563	636	–	–	–	–	–	–
C[C@@H]1CN(Cc2ccc(F)cc2)[C@@H](C)CN1C(=O)c1cc2c(C(=O)C(=O)N(C)C)cn(C)c2cc1Cl [Talmapimod]	218	657	–	–	–	–	–	–
CO[C@@]12[C@H](COC(N)=O)C3=C(C(=O)C(C)=C(N)C3=O)N1C[C@@H]1N[C@@H]12 [Mitomycin C]	133	200	–	–	–	–	–	–
Nc1ccn([C@@H]2O[C@H](CO)[C@@H](O)[C@@H]2O)c(=O)n1 [Cytarabine]	457	789	–	–	–	–	–	–
Nc1ncn([C@@H]2O[C@H](CO)[C@@H](O)[C@H]2O)c(=O)n1 [5-Azacytidine]	–	360	–	–	–	–	–	–
COc1cc([C@@H](CC(=O)O)c2ccc(C)c(CN3C[C@@H](C)Oc4ccccc4S3(=O)=O)c2)cc2nnn(C)c12 [KI-696]	533	351	–	–	–	–	–	–
CN1C(=O)[C@@H](NC(=O)c2n[nH]c(Cc3ccccc3)n2)COc2ccccc21	359	714	–	–	–	–	–	–
C#CCC(Cc1cnc2nc(N)nc(N)c2n1)c1ccc(C(=O)N[C@@H](CCC(=O)O)C(=O)O)cc1 (stereo not given in full) [Pralatrexate]	137	-57.8	–	–	–	–	–	–
Nc1nc(NC2CC2)cc(-c2cccc(Cl)c2Cl)n1 [TH588]	-251	-172	–	–	–	–	–	–
O=C(CCCCCCNC(=O)c1cnc(N(c2ccccc2)c2ccccc2Cl)nc1)NO [Citarinostat (ACY-241)]	-47.7	-290	–	–	–	–	–	–

SMILES	ExcessHSA synergy score with TAK-243 [1]	ExcessHSA synergy score with TAK-243 [2]	AC50 viability [3] [µM]	AC50 viability [4] [µM]	AC50 viability [5] [µM]	area under concentration-response curve [6]	area under concentration-response curve [7]	area under concentration-response curve [8]
Cc1cc(F)c(C(=O)Nc2cccc(-c3nncn3C(C)C)n2)cc1-n1cnc(C2CC2)c1 [Selonsertib]	496	231	–	–	–	–	–	–
C/C=C(/C)C(=O)O[C@H]1C(C)=C2[C@H]([C@@H]1OC(=O)CCCCCCC)[C@@](C)(OC(C)=O)C[C@H](OC(=O)CCC)[C@@]1(O)[C@H]2OC(=O)[C@@]1(C)O [Thapsigargin]	-443	-409	–	–	–	–	–	–
Nc1nc2[nH]cc(CCc3ccc(C(=O)N[C@@H](CCC(=O)O)C(=O)O)cc3)c2c(=O)[nH]1 [Pemetrexed]	–	397	–	–	–	–	–	–
O=C(Nc1ccnc(C(F)(F)F)c1)c1cnn(-c2cccc3c(=O)[nH]ccc23)c1C(F)(F)F	-300	-544	–	–	–	–	–	–
CCCCCCCCc1ccc(CCC(N)(CO)CO)cc1 [Fingolimod hydrochloride]	-48.2	127	–	–	–	–	–	–
Nc1ncnc2c1ncn2C(C=O)OC(C=O)CO (stereo not given) [Adenosine Dialdehyde]	349	712	–	–	–	–	–	–
CC(=O)N1CCC(Nc2cc(C(=O)NC[C@H](O)CN3CCc4ccccc4C3)ncn2)CC1	517	649	–	–	–	–	–	–
CC(C)n1c(=O)n(C)c2cnc3cc(F)c(-c4ccc(OCCCN5CCCCC5)nc4)cc3c21 [AZD-1390]	697	286	–	–	–	–	–	–
CN(Cc1cnc2nc(N)nc(N)c2n1)c1ccc(C(=O)N[C@@H](CCC(=O)O)C(=O)O)cc1 [Methotrexate]	544	591	–	–	–	–	–	–
CC[C@@H]1C(=O)N(C)c2cnc(Nc3ccc(C(=O)N[C@H]4CC[C@H](N5CCN(CC6CC6)CC5)CC4)cc3OC)nc2N1C(C)C [Volasertib]	-422	-938	–	–	–	–	–	–
Nc1ncn([C@@H]2O[C@H](CO)[C@@H](O)[C@H]2O)c(=O)n1 [5-Azacitidine]	346	–	–	–	–	–	–	–
CCN(c1cc(-c2ccc(CN3CCOCC3)cc2)cc(C(=O)NCc2c(C)cc(C)[nH]c2=O)c1C)C1CCOCC1	-215	–	–	–	–	–	–	–
Cc1ccc([N+](=O)[O-])cc1[S+](=O)([O-])N(C)/N=C/c1cnc2ccc(Br)cn12	–	–	0.417	0.166	0.417	226	332	346
CC(C)c1cnn2c(NCc3ccccc3)cc(N[C@@H](CO)[C@H](O)CO)nc12	–	–	0.372	0.295	1.48	372	326	395
CCN(c1cc(-c2ccc(CN3CCOCC3)cc2)cc(C(=O)NCc2c(C)cc(C)[nH]c2=O)c1C)C1CCOCC1 [Tazemetostat]	–	-203	–	–	–	–	–	–
O=C(/C=C/c1ccc2ccc(C(F)(F)F)cc2n1)c1ccncc1	–	–	3.72	2.95	3.72	365	439	402
ClC/1=C(NCCN2CCOCC2)/C(=O)C3=C(C=CC=N3)C1=O	–	–	2.35	8.33	5.9	387	409	440
CCN1C(=O)\C(=C/C2=C(C)N=C(N)N=C12)C3=CC=N[NH]3	–	–	4.17	3.32	5.25	397	455	431
CCNC(=O)C#Cc1ccc2c(c1)NC(=O)/C2=C(\Nc1ccc(CN(C)C)cc1)c1ccccc1	–	–	0.91	2.88	2.57	443	536	524
CC1(C)CC(=O)c2c(C(F)(F)F)nn(-c3ccc(C(N)=O)c(NC4CCC(O)CC4)c3)c2C1 (stereo not given)	–	–	1.05	0.295	0.833	359	416	455
COc1ccc(CNC(=O)Nc2ncc([N+](=O)[O-])s2)cc1	–	–	29.5	18.6	23.5	394	400	410
COc1cc2c(NC3CCN(C(C)C)CC3)nc(C3CCCCC3)nc2cc1OCCCN1CCCC1	–	–	11.8	14.8	9.34	369	350	404
COc1cccc2cc(-c3nc([C@H]4CC[C@H](C(=O)O)CC4)n4ncnc(N)c34)[nH]c12	–	–	4.17	10.5	5.9	454	466	492
COCCNCCc1cccc(Nc2ncc3c(n2)-c2ccccc2[C@H](c2ccccc2F)C3)c1	–	–	11.8	26.3	8.33	496	502	467
COc1cc(C(=O)N2CCC(N3CCN(C)CC3)CC2)ccc1Nc1ncc2c(n1)N(C)c1ccccc1C(=O)N2C	–	–	26.3	20.9	16.6	377	423	389
CNc1nc(-c2ccc3c(N)n[nH]c3c2)cc(N2C[C@@H](C(=O)NC3CCCCC3)CC[C@H]2C)n1	–	–	20.9	20.9	18.6	458	544	506
